Read-outs that look alike come from different tables or passages of the source.

The target in one test is CK1δ (Homo sapiens, UniProt P48730). Nature of the test: CK1δ kinase assay (Caliper LabChip electrophoretic separation of fluoresceinated peptide substrate and product). The class given is biochemical. To be noted: 200 pM CK1δ, 50 μM ATP, 1.5 μM peptide, 22 hours at room temperature. The method, boiled down: (§1)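 IC50 values were obtained by non-linear regression from eleven-concentration titrations. The kinase reactions were incubated for 22 hours at room temperature before termination with 35 mM EDTA.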
Chain of CK1δ (P48730 whole entry): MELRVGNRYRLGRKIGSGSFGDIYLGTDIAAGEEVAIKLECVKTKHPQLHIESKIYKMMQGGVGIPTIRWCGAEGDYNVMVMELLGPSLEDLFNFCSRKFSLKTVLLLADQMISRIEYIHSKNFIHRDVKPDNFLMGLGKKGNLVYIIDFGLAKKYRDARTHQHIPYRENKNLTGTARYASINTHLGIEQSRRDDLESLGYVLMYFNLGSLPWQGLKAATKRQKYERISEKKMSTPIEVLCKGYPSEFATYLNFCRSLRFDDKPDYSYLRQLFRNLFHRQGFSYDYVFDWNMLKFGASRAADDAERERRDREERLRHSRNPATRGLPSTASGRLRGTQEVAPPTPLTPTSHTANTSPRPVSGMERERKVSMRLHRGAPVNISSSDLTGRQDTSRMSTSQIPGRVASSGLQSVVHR

The target in the next test is CK1ε (Homo sapiens, UniProt P49674). Nature of the test: CK1ε kinase assay (Caliper LabChip electrophoretic separation of fluoresceinated peptide substrate and product). The class given is biochemical. To be noted: 200 pM CK1ε, 50 μM ATP, 1.5 μM peptide, 22 hours at room temperature. The method, boiled down:
as §1

Chain of CK1ε (P49674 whole entry): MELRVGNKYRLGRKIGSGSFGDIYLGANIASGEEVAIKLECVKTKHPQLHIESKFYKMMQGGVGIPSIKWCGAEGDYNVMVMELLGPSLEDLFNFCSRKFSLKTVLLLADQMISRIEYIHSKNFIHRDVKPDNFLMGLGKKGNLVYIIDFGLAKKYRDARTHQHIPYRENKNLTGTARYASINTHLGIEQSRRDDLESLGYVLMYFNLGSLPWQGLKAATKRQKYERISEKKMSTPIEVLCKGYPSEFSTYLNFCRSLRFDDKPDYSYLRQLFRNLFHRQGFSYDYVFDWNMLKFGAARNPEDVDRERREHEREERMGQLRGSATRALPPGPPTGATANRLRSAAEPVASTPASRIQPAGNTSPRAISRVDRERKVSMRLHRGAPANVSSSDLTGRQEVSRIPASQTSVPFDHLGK

For the compound `CC1(NC(=O)N2Cc3c(C(N)=O)c(-c4ccc(Cl)c(Cl)c4)nn3C(CF)C2)CC(F)(F)C1` (stereo not shown) [Compound A27, 2-(3,4-Dichlorophenyl)-N^5-(3,3-difluoro-1-methylcyclobutyl)-7-(fluoromethyl)-6,7-dihydropyrazolo[1,5-a]pyrazine-3,5(4H)-dicarboxamide], the IC50 on CK1δ (read-out: CK1δ IC50 range) and on CK1ε (read-out: CK1ε IC50 range) was 0.01 to 10 nM each time.

As for `CC1(NC(=O)N2Cc3c(C(N)=O)c(-c4ccc(Cl)c(Cl)c4)nn3C(CF)C2)CC(F)(F)C1` (stereo not shown) [Compound A28, 2-(3,4-Dichlorophenyl)-N^5-(3,3-difluoro-1-methylcyclobutyl)-7-(fluoromethyl)-6,7-dihydropyrazolo[1,5-a]pyrazine-3,5(4H)-dicarboxamide], the IC50 at CK1δ (read-out: CK1δ IC50 range) and on CK1ε (read-out: CK1ε IC50 range) was 0.01 to 10 nM each time.

Consider `NC(=O)c1c(-c2ccc(Cl)c(Cl)c2)nn2c1CN(C(=O)NC1CC(F)(F)C1)C[C@H]2CF` [Compound A29, (S)-2-(3,4-dichlorophenyl)-N^5-(3,3-difluorocyclobutyl)-7-(fluoromethyl)-6,7-dihydropyrazolo[1,5-a] pyrazine-3,5(4H)-dicarboxamide], for which the IC50 on CK1δ (read-out: CK1δ IC50 range) and on CK1ε (read-out: CK1ε IC50 range) was 0.01 to 10 nM each time.

For the compound `NC(=O)c1c(-c2ccc(Cl)c(Cl)c2)nn2c1CN(C(=O)NC1CC(F)(F)C1)C[C@@H]2CF` [Compound A30, (R)-2-(3,4-dichlorophenyl)-N^5-(3,3-difluorocyclobutyl)-7-(fluoromethyl)-6,7-dihydropyrazolo[1,5-a] pyrazine-3,5(4H)-dicarboxamide], the IC50 on CK1δ (read-out: CK1δ) was 0.3 nM; at CK1δ (read-out: CK1δ IC50 range), 0.01 to 10 nM; at CK1ε (read-out: CK1ε), 0.1 nM; at CK1ε (read-out: CK1ε IC50 range), 0.01 to 10 nM.

In the case of `CC(C)(C)NC(=O)N1Cc2c(C(N)=O)c(-c3ccc(Cl)c(Cl)c3)nn2C(C(F)F)C1` (stereo not shown) [Compound A31, N^5-(tert-Butyl)-2-(3,4-dichlorophenyl)-7-(difluoromethyl)-6,7-dihydropyrazolo[1,5-a]pyrazine-3,5(4H)-dicarboxamide], the IC50 at CK1δ (read-out: CK1δ IC50 range) and at CK1ε (read-out: CK1ε IC50 range) was 10 to 100 nM in each case.

On to `CC(C)(C)NC(=O)N1Cc2c(C(N)=O)c(-c3ccc(Cl)c(Cl)c3)nn2C(C(F)F)C1` (stereo not shown) [Compound A32, N^5-(tert-Butyl)-2-(3,4-dichlorophenyl)-7-(difluoromethyl)-6,7-dihydropyrazolo[1,5-a]pyrazine-3,5(4H)-dicarboxamide], for which the IC50 on CK1δ (read-out: CK1δ IC50 range) and on CK1ε (read-out: CK1ε IC50 range) was 0.01 to 10 nM throughout.

`CC1CN(C(=O)NC(C)(C)C)Cc2c(C(N)=O)c(-c3ccc(Cl)c(Cl)c3)nn21` (stereo not shown) [Compound A33, N^5-(tert-Butyl)-2-(3,4-dichlorophenyl)-7-methyl-6,7-dihydropyrazolo[1,5-a]pyrazine-3,5(4H)-dicarboxamide]: the IC50 on CK1δ (read-out: CK1δ IC50 range) and on CK1ε (read-out: CK1ε IC50 range) was 0.01 to 10 nM in each case.

Take `CC1CN(C(=O)NC(C)(C)C)Cc2c(C(N)=O)c(-c3ccc(Cl)c(Cl)c3)nn21` (stereo not shown) [Compound A34, N^5-(tert-Butyl)-2-(3,4-dichlorophenyl)-7-methyl-6,7-dihydropyrazolo[1,5-a]pyrazine-3,5(4H)-dicarboxamide]: the IC50 on CK1δ (read-out: CK1δ IC50 range) and on CK1ε (read-out: CK1ε IC50 range) was 0.01 to 10 nM each time.

Turning to `C[C@@H]1CN(C(=O)NC2CC(F)(F)C2)Cc2c(C(N)=O)c(-c3ccc(Cl)c(Cl)c3)nn21` [Compound A35, (R)-2-(3,4-Dichlorophenyl)-N^5-(3,3-difluorocyclobutyl)-7-methyl-6,7-dihydropyrazolo[1,5-a]pyrazine-3,5(4H)-dicarboxamide], the IC50 at CK1δ (read-out: CK1δ IC50 range) and at CK1ε (read-out: CK1ε IC50 range) was 0.01 to 10 nM in each case.

For `C[C@H]1CN(C(=O)NC2CC(F)(F)C2)Cc2c(C(N)=O)c(-c3ccc(Cl)c(Cl)c3)nn21` [Compound A36, (S)-2-(3,4-Dichlorophenyl)-N^5-(3,3-difluorocyclobutyl)-7-methyl-6,7-dihydropyrazolo[1,5-c]pyrazine-3,5(4H)-dicarboxamide], the IC50 at CK1δ (read-out: CK1δ IC50 range) and at CK1ε (read-out: CK1ε IC50 range) was 0.01 to 10 nM each time.

With `CC(C)(C)NC(=O)N1Cc2c(C(N)=O)c(-c3ccc(Cl)c(Cl)c3)nn2C(C(C)(C)O)C1` (stereo not shown) [Compound A37, N^5-(tert-Butyl)-2-(3,4-dichlorophenyl)-7-(2-hydroxypropan-2-yl)-6,7-dihydropyrazolo[1,5-a]pyrazine-3,5(4H)-dicarboxamide], the values for the IC50 at CK1δ (read-out: CK1δ IC50 range) and on CK1ε (read-out: CK1ε IC50 range) were 10 to 100 nM and 0.01 to 10 nM, respectively.

As to `CC(C)(C)NC(=O)N1Cc2c(C(N)=O)c(-c3ccc(Cl)c(Cl)c3)nn2C(C(C)(C)O)C1` (stereo not shown) [Compound A38, N^5-(tert-Butyl)-2-(3,4-dichlorophenyl)-7-(2-hydroxypropan-2-yl)-6,7-dihydropyrazolo[1,5-a]pyrazine-3,5(4H)-dicarboxamide], the IC50 on CK1δ (read-out: CK1δ IC50 range) and at CK1ε (read-out: CK1ε IC50 range) was 0.01 to 10 nM in each case.

Take `CC(C)(C)NC(=O)N1Cc2c(C(N)=O)c(-c3ccc(F)c(Cl)c3)nn2C2(C1)CC(F)(F)C2` [Compound A39, N^5′-(tert-Butyl)-2′-(3-chloro-4-fluorophenyl)-3,3-difluoro-4′H-spiro[cyclobutane-1,7′-pyrazolo[1,5-a]pyrazine]-3′,5′(6′H)-dicarboxamide]: the IC50 on CK1δ (read-out: CK1δ IC50 range) and on CK1ε (read-out: CK1ε IC50 range) was 0.01 to 10 nM throughout.

With `NC(=O)c1c(-c2cccc(Cl)c2)nn2c1CN(C(=O)NC1(C(F)(F)F)CC1)CC2` [Compound A40, 2-(3-Chlorophenyl)-N^5-(1-(trifluoromethyl)cyclopropyl)-6,7-dihydropyrazolo[1,5-a]pyrazine-3,5(4H)-dicarboxamide], the IC50 on CK1δ (read-out: CK1δ IC50 range) and at CK1ε (read-out: CK1ε IC50 range) was 0.01 to 10 nM each time.

In the case of `CC1(NC(=O)N2CCn3nc(-c4cccc(Cl)c4)c(C(N)=O)c3C2)CC1` [Compound A42, 2-(3-Chlorophenyl)-N^5-(1-methylcyclopropyl)-6,7-dihydropyrazolo[1,5-a]pyrazine-3,5(4H)-dicarboxamide], the IC50 on CK1δ (read-out: CK1δ IC50 range) and on CK1ε (read-out: CK1ε IC50 range) was 0.01 to 10 nM throughout.

Regarding `CC(C)(CO)NC(=O)N1CCn2nc(-c3cccc(Cl)c3)c(C(N)=O)c2C1` [Compound A46, 2-(3-Chlorophenyl)-N^5-(1-hydroxy-2-methylpropan-2-yl)-6,7-dihydropyrazolo[1,5-a] pyrazine-3,5(4H)-dicarboxamide], the IC50 on CK1δ (read-out: CK1δ IC50 range) and at CK1ε (read-out: CK1ε IC50 range) was 0.01 to 10 nM each time.

Consider `COCC(C)(C)NC(=O)N1CCn2nc(-c3cccc(Cl)c3)c(C(N)=O)c2C1` [Compound A47, 2-(3-Chlorophenyl)-N^5-(1-methoxy-2-methylpropan-2-yl)-6,7-dihydropyrazolo[1,5-a] pyrazine-3,5(4H)-dicarboxamide], for which the IC50 on CK1δ (read-out: CK1δ IC50 range) and at CK1ε (read-out: CK1ε IC50 range) was 0.01 to 10 nM throughout.

Regarding `CC(C)(CO)NC(=O)N1CCn2nc(-c3ccc(F)c(Cl)c3)c(C(N)=O)c2C1` [Compound A48, 2-(3-Chloro-4-fluorophenyl)-N^5-(1-hydroxy-2-methylpropan-2-yl)-6,7-dihydropyrazolo[1,5-a] pyrazine-3,5(4H)-dicarboxamide], the IC50 on CK1δ (read-out: CK1δ IC50 range) and on CK1ε (read-out: CK1ε IC50 range) was 0.01 to 10 nM each time.

As to `NC(=O)c1c(-c2ccc(F)c(Cl)c2)nn2c1CN(C(=O)NC(CF)(CF)CF)CC2` [Compound A49, 2-(3-Chloro-4-fluorophenyl)-N^5-(1,3-difluoro-2-(fluoromethyl)propan-2-yl)-6,7-dihydropyrazolo[1,5-a] pyrazine-3,5(4H)-dicarboxamide], the IC50 on CK1δ (read-out: CK1δ IC50 range) and on CK1ε (read-out: CK1ε IC50 range) was 0.01 to 10 nM in each case.

Take `N#Cc1ccc(C23CCC(NC(=O)N4CCn5nc(-c6ccc(F)c(Cl)c6)c(C(N)=O)c5C4)(CC2)CC3)cc1` [Compound A51, 2-(3-Chloro-4-fluorophenyl)-N^5-(4-(4-cyanophenyl)bicyclo[2.2.2]octan-1-yl)-6,7-dihydropyrazolo[1,5-a]pyrazine-3,5(4H)-dicarboxamide]: the IC50 at CK1δ (read-out: CK1δ IC50 range) and on CK1ε (read-out: CK1ε IC50 range) was 0.01 to 10 nM each time.

Turning to `NC(=O)c1c(-c2ccc(F)c(Cl)c2)nn2c1CN(C(=O)NC13CCC(c4ccc(F)cc4)(CC1)CC3)CC2` [Compound A52, 2-(3-Chloro-4-fluorophenyl)-N^5-(4-(4-fluorophenyl)bicyclo[2.2.2]octan-1-yl)-6,7-dihydropyrazolo[1,5-a]pyrazine-3,5(4H)-dicarboxamide], the IC50 at CK1δ (read-out: CK1δ IC50 range) and on CK1ε (read-out: CK1ε IC50 range) was 0.01 to 10 nM each time.

As to `NC(=O)c1c(-c2ccc(F)c(Cl)c2)nn2c1CN(C(=O)NC13CCC(c4ccccc4)(CC1)CC3)CC2` [Compound A53, 2-(3-Chloro-4-fluorophenyl)-N^5-(4-phenylbicyclo[2.2.2]octan-1-yl)-6,7-dihydropyrazolo[1,5-a]pyrazine-3,5(4H)-dicarboxamide], the IC50 at CK1δ (read-out: CK1δ IC50 range) and at CK1ε (read-out: CK1ε IC50 range) was 0.01 to 10 nM each time.

Take `NC(=O)c1c(-c2ccc(F)c(Cl)c2)nn2c1CN(C(=O)NC13CCC(F)(CC1)CC3)CC2` [Compound A54, 2-(3-Chloro-4-fluorophenyl)-N^5-(4-fluorobicyclo[2.2.2]octan-1-yl)-6,7-dihydropyrazolo[1,5-a]pyrazine-3,5(4H)-dicarboxamide]: the IC50 at CK1δ (read-out: CK1δ IC50 range) and on CK1ε (read-out: CK1ε IC50 range) was 0.01 to 10 nM throughout.

`NC(=O)c1c(-c2ccc(F)c(Cl)c2)nn2c1CN(C(=O)NC13CCC(CO)(CC1)CC3)CC2` [Compound A55, 2-(3-Chloro-4-fluorophenyl)-N^5-(4-(hydroxymethyl)bicyclo[2.2.2]octan-1-yl)-6,7-dihydropyrazolo[1,5-a]pyrazine-3,5(4H)-dicarboxamide]: the IC50 on CK1δ (read-out: CK1δ IC50 range) and at CK1ε (read-out: CK1ε IC50 range) was 0.01 to 10 nM throughout.

As for `NC(=O)c1c(-c2ccc(F)c(Cl)c2)nn2c1CN(C(=O)NC13CCC(CF)(CC1)CC3)CC2` [Compound A56, 2-(3-Chloro-4-fluorophenyl)-N^5-(4-(fluoromethyl)bicyclo[2.2.2]octan-1-yl)-6,7-dihydropyrazolo[1,5-a]pyrazine-3,5(4H)-dicarboxamide], the IC50 on CK1δ (read-out: CK1δ IC50 range) and on CK1ε (read-out: CK1ε IC50 range) was 0.01 to 10 nM throughout.

For the origin of these results see patent publication US9273058B2 (BRISTOL-MYERS SQUIBB COMPANY, priority 2013, dated 2016).
